In brackets after ≈: the same amount, converted by molar mass. Read-outs that look alike come from different tables or passages of the source.
Columns and labels:
[1] = cited from earlier work; for maximum tolerated dose (MTD): ref Judson et al., 1989
[2] = Solution stability / decomposition studies
Source text: (§1) Figwe 3 Chemical stnruu of disulphonated aluminium phthalocyamne.

[3] = system: acid or alkaline phosphatase; assay: Incubation of prodrug with phosphatase; type: biochemical; settings: incubated with acid or alkaline phosphatase
Source text: (§2) Brsh Jowbnl d Cancer ( ) 72, 210-218 ? […] Figwe 3 Chemical stnruu of disulphonated aluminium phthalocyamne.

Aqueous solubility = settings: for aqueous solubility (in words): water / aqueous solution
[4] = In vivo anti-tumour activity
Source text: as §2

physchem [5] = assay: physchem
[6] = parameters: method as in de Vries et al., 1993; settings: aqueous solution; ref de Vries et al., 1993; cited from earlier work
[7] = Stability of formulated product (shelf-life, reconstituted solution); settings: for pH of reconstituted solution: lyophilised product reconstituted with water
Source text: as §2

LOX amelanotic melanoma = system: LOX amelanotic melanoma; parameters: method as in Waud et al., 1992; settings: xenograft in athymic mice; ref Waud et al., 1992; cited from earlier work
NCI-H82 = system: NCI-H82; parameters: method as in Waud et al., 1992; settings: xenograft in athymic mice; ref Waud et al., 1992; cited from earlier work
[8] = Preclinical toxicology studies
Source text: as §1

MX-1 mammary carcinoma = system: MX-1 mammary carcinoma; parameters: method as in Waud et al., 1992; settings: xenograft in athymic mice; ref Waud et al., 1992; cited from earlier work
physchem [9] = assay: physchem; remark: listed apart in the source
Source text: as §2

[10] = Phase I/II clinical trials: toxicity; type: in vivo, human; settings: phase I trial
Source text: as §2

[11] = parameters: method as in Torres-Labandeira et al., 1991; settings: 40% aqueous solution of HPCD; ref Torres-Labandeira et al., 1991; cited from earlier work
[12] = phase I studies; ref Sessa et al., 1991; cited from earlier work
P388 leukaemia = assay: Anti-tumour activity against P388 leukaemia; type: in vivo
Source text: as §2

B16 melanoma = assay: Anti-tumour activity against B16 melanoma; type: in vivo
Source text: as §2

[13] = cited from earlier work
colon 26 = assay: Anti-tumour activity against colon 26 tumour; type: in vivo
Source text: as §2

L1210 leukaemia = assay: Anti-tumour activity against L1210 leukaemia; type: in vivo
Source text: as §2

Murine anti-tumour tests = type: in vivo
Source text: as §2

[14] = Clinical pharmacokinetics in phase I trial; type: in vivo, human
Source text: as §2

gliomas = system: gliomas; parameters: method as in Stevens and Newlands, 1993; settings: daily for five consecutive days; ref Stevens and Newlands, 1993; cited from earlier work
DNA polymerase-alpha = system: DNA polymerase-alpha; parameters: method as in Bucknall et al., 1973; Taguchi et al., 1978; settings: ref Bucknall et al., 1973; Taguchi et al., 1978; cited from earlier work
solid tumour models = assay: Activity in solid tumour models; type: in vivo; settings: several solid tumour models
Source text: as §2

[15] = Preliminary murine toxicological study; type: in vivo; settings: PET solvent system formulation
Source text: as §2

[16] = In vitro anti-tumour activity; type: cell-based
Source text: as §2

[17] = data from the drug's discoverers; ref Pettit et al., 1982; cited from earlier work
[18] = Compatibility and adsorption studies with administration sets; type: physicochemical
Source text: as §2

For `ClCC[N+]12CC[N+](CCCl)(CC1)C2.O=C([O-])/C=C\C(=O)O.O=C([O-])/C=C\C(=O)O` [Dabis maleate, 1,4-bis (2'-chloroethyl)-1,4-diazabicyclo-[2.2.1] heptane dimaleate], the “recommended phase II dose” value ([1]; 6 h infusion for 6 weeks followed by 3 week drug vacation, ref Verweij et al., 1992) is listed as 500 mg m2 week-', the “recommended dose for phase II trials” value ([1]; once every 3 weeks, ref van der Burg et al., 1991) is listed as 750 mg m-2 and the dose-limiting toxicity ([1]; phase I, once every 3 weeks, ref van der Burg et al., 1991) is listed as “neurotoxicity”. For the same compound, the “toxicity of prolonged infusion” value ([1]; prolonged infusion, ref Verweij et al., 1992) was “neurotoxicity consisting of parasthesia and ataxia”.

In the case of `COc1ccc(/C=C\c2cc(OC)c(OC)c(OC)c2)cc1OP(=O)(O)O` [phosphate ester], the “stability in aqueous solutions (in words)” value ([2]; aqueous solutions) is reported as “adequate”, the “release of parent molecule” value [3] is reported as “released the parent mokcule” and the “aqueous solubility (in words)” value (Aqueous solubility) is reported as “adequate”. For the same compound, the in vivo activity [4] was “inactive”.

In the case of `Cn1c(/C=C/CO)c(CO)c2c1C(=O)C=C(N1CC1)C2=O` [E.O.9], the solubility (physchem [5]) is given as 200 to 500 µg/mL (≈ 0.694 to 1.73 mM), the “pH of maximum stability” value [6] is given as “around 9.5” and the “aqueous solubility (in words)” value (Aqueous solubility) is given as “lmited”. The “time reconstituted solution is stable” value ([7]; 0.5 mg ml-1 in 0.9% sodium chloride, room temperature) was “at least 24 h”.

For `CNC(=O)OCc1nc(SC)n(C)c1COC(=O)NC.Cl` [Carmethizole hydrochloride, carmethizole hydrochloride], the anti-tumour activity (LOX amelanotic melanoma) is listed as “active”, the “pH of maximal stability” value ([2]; about pH 1 or lower) is listed as ~1 and the “solubility of the hydrochloride salt” value (Aqueous solubility; hydrochloride salt) is listed as “greater than 500 mg ml- 1”. For the same compound, the anti-tumour activity (NCI-H82) was “active”, the toxicity observed ([8]; preclinical toxicology studies) was “signifiant cardiotoxicity” and the anti-tumour activity (MX-1 mammary carcinoma) was “active”. The “teA (time to 10% decomposition)” value ([7]; freeze-dried product reconstituted with water for injection, solution pH 2.8) was ~5.4 h and the “pH of reconstituted solution” value [7] was 2.8.

With `CCN(CC)c1ccc2cc(C(=O)Nc3ccc4[nH]c(C(=O)N5C[C@@H](CCl)c6c5cc(OC(=O)Nc5ccccc5)c5[nH]cc(C)c65)cc4c3)oc2c1` [Carzelesin] the “solubility in common pharmaceutically acceptable solvents” value (physchem [9]) was “very low” and the “time drug is stable in PET vehicle” value ([7]; stored at -30C, PEG 400/polysorbate 80/ethanol) was “at least 1 year”.

With `COc1ccc(O)cc1` [4-Hydroxyanisole] the toxicity observed ([10]; intravenous, ethanol vehicle) was “Hepatotoxicity was observed”.

In the case of `O=C1N[C@H]2[C@H](O)[C@H](O)[C@@H](O)[C@H](O)[C@@H]2c2cc3c(c(O)c21)OCO3` [Pancratistatin], the solubility (physchem [9]; aqueous solubilisation with complexing agent) is given as 1000 µg/mL (≈ 3.07 mM), the solubility (physchem [9]; solubility in a range of solvents) is given as < 400 µg/mL and the “solubility in hydroxypropyl-beta-cyclodextrin solution” value [11] is given as “approximately 1.2 mg ml-'”. For the same compound, the “pH of reconstituted solution” value [7] was 6.3.

For `NC(=O)c1ncn2c(=O)n(CCCl)nnc12` [Mitozolomide, mitozolomide, reference compound], the “toxicity for which trials were terminated” value ([1]; phase I and phase II clinical trials) is given as “unpredictable throm- bocYtopenia”.

For `C[C@@]1(CO)[C@H](O)CC[C@@]2(C)[C@H]1CC[C@H]1C[C@@H]3C[C@@]12CC[C@]3(O)COC(=O)CN.Cl` [aphidicolin glycinate], the “dose at which toxicity was dose limiting” value ([1]; 1 h infusion for five consecutive days every 3 weeks, ref Sessa et al., 1991) is given as 2250 mg m-2, the “dose at which toxicity was dose limiting” value ([1]; 24 h infusion every 3 weeks, ref Sessa et al., 1991) is given as 4500 mg m-2 and the dose-limiting toxicity ([1]; both phase I studies, ref Sessa et al., 1991) is given as “Local toxicity”. The pharmacologically active levels [12] was “had not been achieved”, the “pH of maximal stability” value ([2]; pH 2.0-9.0 at 40-C) was 4.5 and the anti-tumour activity (P388 leukaemia) was “active”. The “solubility of hydrochloride salt of the glycine amino group” value (Aqueous solubility; hydrochloride salt) was “greater than 100 mgnml'”, the anti-tumour activity (B16 melanoma) was “active” and the “time diluted solution is stable” value ([7]; 1 mg ml-1 in 5% dextrose or 0.9% sodium chloride injection, HPLC) was “more than 24 h”. For the same compound, the “time reconstituted solution is stable” value ([7]; 100 mg ml-1 in water for injection) was “at least 24 h”.

For `CS(=O)(=O)OCCN(CCCl)c1ccc(C(=O)N[C@@H](CCC(=O)O)C(=O)O)cc1` [Springer prodrug], the “time until degradation apparent” value ([7]; lyophilised material at 20-25C) was ≤ 2 weeks and the “time lyophilised material is stable” value ([7]; stored at 4C) was “up to 1 year”.

For `CN(CO)c1nc(N(C)CO)nc(N(C)CO)n1` [Trimelamol, N2,N4,N6-trihydroxymethyl-N2,N4,N6-trimethylmelamine], the solubility (physchem [5]; water) is listed as 10000 µg/mL (≈ 38.7 mM), the “maximum tolerated dose (MTD)” value ([1]; single administration) is listed as 2400 mgm-2 and the “maximum tolerated dose (MTD)” value ([1]; thrice-daily schedule) is listed as 1000 mg m2. The “pH of maximum stability” value ([2]; HPLC, 25C, pH 3-12.5) was 10-11, the half-life ([2]; buffer, pH 10) was > 30 h and the anti-tumour activity (P388 leukaemia) was “active”. For the same compound, the anti-tumour activity (B16 melanoma) was “active”, the “t/2 of reconstituted freeze-dried formulation” value ([13]; 50% aqueous PEG 3400, 30 mg ml-1, not further diluted, ref Gibson et al. (1990)) was 46.3 h and the anti-tumour activity (colon 26) was “active”. It also gave a solubility (physchem [9]; 95% ethanol) of ~45000 µg/mL (≈ 174 mM), a solubility (physchem [9]; DMA) of ~375000 µg/mL (≈ 1450 mM) and a solubility (physchem [9]; propylene glycol) of ~15000 µg/mL (≈ 58.1 mM). The anti-tumour activity (L1210 leukaemia) was “active”.

In the case of `CCCCCCCCCCCCCCCCCCOCC1(COP(=O)([O-])OCC[N+](C)(C)C)CCCO1` (centres unmarked) [SRI 62-834], the “solubility in aqueous systems” value (Aqueous solubility; at 20C) is reported as 50 % (w/ v), the “local tolerance of simple aqueous formulations” value ([8]; simple aqueous formulations) is reported as “irritation at the site of injection” and the “time formulation is chemically and physically stable” value ([7]; Intralipid formulation) is reported as 3 months.

With `Cn1nnc2c(C(N)=O)ncn2c1=O` [Temozolomide] the “potency relative to mitozolomide” value (Murine anti-tumour tests) was “less potent”, the “solubility in DMSO relative to mitozolomide” value (physchem [9]; DMSO) was “less soluble” and the bioavailability ([14]; human, in vivo, patients, 200 mg m2, oral vs i.v., read-out: bioavailability of oral formulation) was ~100%. For the same compound, the “dose dependency in the pharmacokinetics” value ([14]; oral formulation, dose escalations) was “no evidence of dose dependency”, the “absorption of oral formulation” value ([14]; patients, oral) was “rapid” and the activity against gliomas (gliomas) was “evident”. The “toxicity relative to mitozolomide” value ([8]; in vivo) was “ess toxi”.

In the case of `C[C@@]1(CO)[C@H](O)CC[C@@]2(C)[C@H]1CC[C@H]1C[C@@H]3C[C@@]12CC[C@]3(O)CO` [Aphidicolin, reference compound], the solubility (physchem [5]) is listed as ~250 µg/mL (≈ 0.739 mM), the “effect on DNA polymerase” value (DNA polymerase-alpha) is listed as “inhibit” and the anti-tumour activity (B16 melanoma) is listed as “observed”. The anti-tumour activity (colon 26) was “observed”.

In the case of `CO[C@@H](/C(C)=C/C=C/C(C)=C/c1coc(C)n1)[C@@H](C)[C@@H]1C[C@H](O)[C@@]2(C)O[C@@H]2/C=C/[C@@H](C)[C@H]2C[C@H](CC(=O)O2)C[C@@H]2O[C@H]2C(=O)O1` [Rhizoxin], the solubility (physchem [5]) is reported as 12 µg/mL (≈ 0.0192 mM), the “increase in degradation in presence of light vs protected from light” value ([2]; pH 5.6) is reported as “approximately 2 -fold” and the “solubility in t-butanol and t-butanol-water mixtures” value (physchem [9]; t-butanol, t-butanol-water) is reported as “excellent”.

In the case of `CC(C)NC(=O)OCc1c(COC(=O)NC(C)C)c(-c2ccc(Cl)c(Cl)c2)n2c1CCC2` [NSC-278214, reference compound], the half-life ([2]; 66% aqueous acetone at 25 C) is listed as “around 5 mi”, the “aqueous solubility (in words)” value (Aqueous solubility) is listed as “negligible” and the drug decomposed ([13]; in 2 h, 10% fat emulsion (Intralipid), 0.7 mg ml-1, 1% DMA, 5% Cremophor EL, ref El-Sayed and Repta 1983) is listed as “about 10%”. For the same compound, the anti-tumour activity (solid tumour models) was “activity”.

In the case of `COc1ccc(/C=C\c2cc(OC)c(OC)c(OC)c2)cc1O` [Combretastatin A4], the in vivo activity [4] is reported as “no significant”, the local tolerance [15] is reported as “severe irritation at the injection site” and the “in vitro anti-tumour activity” value [16] is reported as “excellent”.

For `CCC/C=C/C=C/C(=O)O[C@H]1/C(=C/C(=O)OC)C[C@H]2C[C@H]([C@@H](C)O)OC(=O)C[C@H](O)C[C@@H]3C[C@H](OC(C)=O)C(C)(C)[C@](O)(C[C@@H]4C/C(=C/C(=O)OC)C[C@H](/C=C/C(C)(C)[C@]1(O)O2)O4)O3` [bryostatin 1], the “local toxicity thought to be associated with high ethanol concentration” value ([10]; ethanol solution) is given as “phlebitis”, the major toxicity ([10]; with or without in-line dilution) is given as “general myalgia” and the “aqueous solubility (in words)” value [17] is given as “lmited”. The “percentage of ethanol below which the drug precipitated” value (physchem [9]; ethanolic solutions at predicted formulation concentrations) was “below 50%”, the “adsorption onto administration set surfaces” value ([18]; PTFE-lined sets, ethanol concentration below 50%) was “significant” and the “adsorption onto administration set surfaces” value ([18]; plastic not PTFE-lined (e.g. PVC)) was “exten- sive adsorption”.

Source: paper PMC2034157, “CRC/EORTC/NCI Joint Formulation Working Party: experiences in the formulation of investigational cytotoxic drugs” (British Journal of Cancer, 1995)
